In the NIST ThermoML archive (doi:10.1016/j.jct.2005.05.003):

Assay: mn = molality of the nth substance listed, in mol/kg
Conditions: Liquid, Vibrating tube method

[Ca+2].[Cl-].[Cl-] [calcium chloride] + CO
Conditions	mass density [kg/m3]
298.27 K, 184 kPa, m1 = 2.393	977.23
298.27 K, 5004 kPa, m1 = 2.393	980.74
298.27 K, 9983 kPa, m1 = 2.393	984.25
298.27 K, 14989 kPa, m1 = 2.393	987.66
298.27 K, 19998 kPa, m1 = 2.393	990.95
298.27 K, 25001 kPa, m1 = 2.393	994.14
298.27 K, 30011 kPa, m1 = 2.393	997.26
298.27 K, 34980 kPa, m1 = 2.393	1000.22
298.27 K, 39985 kPa, m1 = 2.393	1003.15
298.28 K, 175 kPa, m1 = 0.2853	814.28
298.28 K, 179 kPa, m1 = 0.6588	848.89
298.28 K, 202 kPa, m1 = 0.1082	797.82
298.28 K, 4988 kPa, m1 = 0.6588	853.15
298.28 K, 5000 kPa, m1 = 0.2853	818.77
298.28 K, 5011 kPa, m1 = 0.1082	802.48
298.28 K, 9997 kPa, m1 = 0.6588	857.39
298.28 K, 10009 kPa, m1 = 0.2853	823.22
298.28 K, 10011 kPa, m1 = 0.1082	807.08
298.28 K, 14985 kPa, m1 = 0.2853	827.41
298.28 K, 15002 kPa, m1 = 0.1082	811.44
298.28 K, 15012 kPa, m1 = 0.6588	861.47
298.28 K, 19991 kPa, m1 = 0.1082	815.57
298.28 K, 20010 kPa, m1 = 0.6588	865.31
298.28 K, 20018 kPa, m1 = 0.2853	831.46
298.28 K, 24989 kPa, m1 = 0.2853	835.29
298.28 K, 24991 kPa, m1 = 0.6588	868.99
298.28 K, 24997 kPa, m1 = 0.1082	819.63
298.28 K, 29982 kPa, m1 = 0.2853	838.98
298.28 K, 29989 kPa, m1 = 0.1082	823.45
298.28 K, 29991 kPa, m1 = 0.6588	872.56
298.28 K, 34983 kPa, m1 = 0.6588	875.99
298.28 K, 34994 kPa, m1 = 0.2853	842.53
298.28 K, 35017 kPa, m1 = 0.1082	827.11
298.28 K, 39984 kPa, m1 = 0.6588	879.31
298.28 K, 39998 kPa, m1 = 0.1082	830.67
298.28 K, 40005 kPa, m1 = 0.2853	845.94
323.22 K, 232 kPa, m1 = 0.6588	824.35
323.22 K, 237 kPa, m1 = 2.393	952.79
323.22 K, 245 kPa, m1 = 0.1082	773.87
323.22 K, 4998 kPa, m1 = 0.6588	829.19
323.22 K, 5003 kPa, m1 = 2.393	956.69
323.22 K, 5013 kPa, m1 = 0.1082	779.2
323.22 K, 9984 kPa, m1 = 0.1082	784.43
323.22 K, 9988 kPa, m1 = 2.393	960.6
323.22 K, 10013 kPa, m1 = 0.6588	834.04
323.22 K, 14985 kPa, m1 = 2.393	964.38
323.22 K, 14994 kPa, m1 = 0.1082	789.4
323.22 K, 15000 kPa, m1 = 0.6588	838.59
323.22 K, 19991 kPa, m1 = 0.1082	794.09
323.22 K, 20010 kPa, m1 = 0.6588	842.96
323.22 K, 20014 kPa, m1 = 2.393	968.03
323.22 K, 24988 kPa, m1 = 0.6588	847.08
323.22 K, 24989 kPa, m1 = 0.1082	798.56
323.22 K, 25005 kPa, m1 = 2.393	971.52
323.22 K, 29988 kPa, m1 = 0.1082	802.81
323.22 K, 29988 kPa, m1 = 2.393	974.89
323.22 K, 30009 kPa, m1 = 0.6588	851.08
323.22 K, 34980 kPa, m1 = 2.393	978.17
323.22 K, 34991 kPa, m1 = 0.1082	806.89
323.22 K, 35005 kPa, m1 = 0.6588	854.89
323.22 K, 39995 kPa, m1 = 0.1082	810.79
323.22 K, 39995 kPa, m1 = 0.6588	858.56
323.22 K, 40017 kPa, m1 = 2.393	981.39
323.23 K, 226 kPa, m1 = 0.2853	790.12
323.23 K, 5015 kPa, m1 = 0.2853	795.26
323.23 K, 9993 kPa, m1 = 0.2853	800.3
323.23 K, 14993 kPa, m1 = 0.2853	805.07
323.23 K, 20003 kPa, m1 = 0.2853	809.62
323.23 K, 25013 kPa, m1 = 0.2853	813.96
323.23 K, 30015 kPa, m1 = 0.2853	818.08
323.23 K, 34988 kPa, m1 = 0.2853	821.99
323.23 K, 40005 kPa, m1 = 0.2853	825.78
348.23 K, 303 kPa, m1 = 2.393	928.79
348.23 K, 4983 kPa, m1 = 2.393	933.12
348.23 K, 9990 kPa, m1 = 2.393	937.54
348.23 K, 15005 kPa, m1 = 2.393	941.76
348.23 K, 20000 kPa, m1 = 2.393	945.79
348.23 K, 24993 kPa, m1 = 2.393	949.65
348.23 K, 29995 kPa, m1 = 2.393	953.38
348.23 K, 35000 kPa, m1 = 2.393	956.97
348.23 K, 39984 kPa, m1 = 2.393	960.44
348.24 K, 308 kPa, m1 = 0.1082	748.93
348.24 K, 321 kPa, m1 = 0.6588	799.27
348.24 K, 326 kPa, m1 = 0.2853	765.1
348.24 K, 4986 kPa, m1 = 0.6588	804.77
348.24 K, 5001 kPa, m1 = 0.2853	770.94
348.24 K, 5010 kPa, m1 = 0.1082	755.08
348.24 K, 9985 kPa, m1 = 0.1082	761.11
348.24 K, 9995 kPa, m1 = 0.6588	810.3
348.24 K, 9998 kPa, m1 = 0.2853	776.76
